Laboratory results reported in ChEMBL document CHEMBL1149358, “Synthesis and dipeptidyl peptidase inhibition of N-(4-substituted-2,4-diaminobutanoyl)piperidines” (Bioorg Med Chem Lett, 2006).

Key:
[1] = target: Dipeptidyl peptidase 4 (Homo sapiens, UniProt P27487); assay: Inhibition of DPP4
[2] = target: Dipeptidyl peptidase 8 (Homo sapiens, UniProt Q6V1X1); assay: Inhibition of DPP8
[3] = target: T1, Dipeptidyl peptidase 2 (Homo sapiens, UniProt Q9UHL4); assay: Inhibition of DPP2
[4] = organism: Homo sapiens; assay: Selectivity for DPP2 over DPP8
[5] = target: T1, Dipeptidyl peptidase 2; assay: Inhibition of DPP II

Dipeptidyl peptidase 4, sequence (P27487 whole entry): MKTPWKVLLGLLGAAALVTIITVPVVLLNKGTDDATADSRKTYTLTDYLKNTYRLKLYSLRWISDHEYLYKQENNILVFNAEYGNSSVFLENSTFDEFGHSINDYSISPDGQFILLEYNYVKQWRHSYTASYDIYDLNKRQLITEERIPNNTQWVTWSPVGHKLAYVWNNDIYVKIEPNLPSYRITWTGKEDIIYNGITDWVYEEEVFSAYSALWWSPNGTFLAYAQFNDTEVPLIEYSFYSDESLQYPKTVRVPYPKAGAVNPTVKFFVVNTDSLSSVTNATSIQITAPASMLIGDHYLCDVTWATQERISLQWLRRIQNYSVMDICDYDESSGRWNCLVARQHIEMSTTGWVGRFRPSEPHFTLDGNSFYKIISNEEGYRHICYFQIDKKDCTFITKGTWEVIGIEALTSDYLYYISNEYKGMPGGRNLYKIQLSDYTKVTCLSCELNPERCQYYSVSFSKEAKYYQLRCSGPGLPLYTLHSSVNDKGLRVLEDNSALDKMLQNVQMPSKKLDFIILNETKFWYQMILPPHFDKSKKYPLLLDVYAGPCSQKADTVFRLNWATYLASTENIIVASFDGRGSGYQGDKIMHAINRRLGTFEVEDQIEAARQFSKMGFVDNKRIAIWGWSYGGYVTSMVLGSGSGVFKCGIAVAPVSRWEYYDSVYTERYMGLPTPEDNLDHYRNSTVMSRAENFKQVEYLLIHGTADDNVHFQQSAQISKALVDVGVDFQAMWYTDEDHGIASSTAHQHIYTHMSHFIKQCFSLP
Dipeptidyl peptidase 8, sequence (Q6V1X1 whole entry): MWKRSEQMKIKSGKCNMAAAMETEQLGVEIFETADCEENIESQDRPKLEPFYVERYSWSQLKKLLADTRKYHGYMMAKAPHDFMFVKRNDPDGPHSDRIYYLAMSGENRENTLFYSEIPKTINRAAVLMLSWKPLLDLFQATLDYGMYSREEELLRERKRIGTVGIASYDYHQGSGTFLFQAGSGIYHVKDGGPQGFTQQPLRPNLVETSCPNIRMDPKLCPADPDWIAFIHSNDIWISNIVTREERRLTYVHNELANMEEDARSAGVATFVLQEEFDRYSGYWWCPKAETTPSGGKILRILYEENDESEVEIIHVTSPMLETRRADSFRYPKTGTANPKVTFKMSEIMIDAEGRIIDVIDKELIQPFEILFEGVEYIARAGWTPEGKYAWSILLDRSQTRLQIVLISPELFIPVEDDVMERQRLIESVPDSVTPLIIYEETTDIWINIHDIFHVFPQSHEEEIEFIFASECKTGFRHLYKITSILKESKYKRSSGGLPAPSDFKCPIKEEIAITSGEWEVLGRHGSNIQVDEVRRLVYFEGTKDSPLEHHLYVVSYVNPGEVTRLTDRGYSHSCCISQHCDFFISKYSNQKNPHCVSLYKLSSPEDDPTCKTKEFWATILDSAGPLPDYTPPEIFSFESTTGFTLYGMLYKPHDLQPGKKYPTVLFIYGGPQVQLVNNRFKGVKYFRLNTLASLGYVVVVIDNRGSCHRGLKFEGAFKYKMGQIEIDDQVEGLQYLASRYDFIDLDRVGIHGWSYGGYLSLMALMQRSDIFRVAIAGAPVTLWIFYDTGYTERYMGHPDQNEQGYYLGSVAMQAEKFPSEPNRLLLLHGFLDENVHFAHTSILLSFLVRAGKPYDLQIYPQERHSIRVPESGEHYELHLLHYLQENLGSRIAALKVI

SMILES	IC50 [1] [µM]	IC50 [2] [µM]	IC50 [3] [nM]	Selectivity index [4]	Ki [5] [nM]
N[C@@H](C[C@H](Cc1ccccc1)NCc1ccc(Cl)cc1)C(=O)N1CCCCC1	> 125	> 100			
N[C@@H](C[C@@H](Cc1ccccc1)NCc1ccc(Cl)cc1)C(=O)N1CCCCC1	> 125	> 500			
N[C@@H](CCNCc1ccc(Cl)cc1)C(=O)N1CCCCC1	196	142	0.22	> 10000	0.082
CC[C@@H](C[C@H](N)C(=O)N1CCCCC1)NCc1ccc(Cl)cc1	> 100	> 100			

The next lines start with the values.

IC50 [1] [µM]	IC50 [2] [µM]	IC50 [3] [nM]	Selectivity index [4]	Ki [5] [nM]	SMILES
325					C[C@@H](C[C@H](N)C(=O)N1CCCCC1)NCc1ccc(Cl)cc1
234	> 100				CCC(C)[C@@H](C[C@H](N)C(=O)N1CCCCC1)NCc1ccc(Cl)cc1 (some centres not stated)
> 125	> 100				CC(C)[C@@H](C[C@H](N)C(=O)N1CCCCC1)NCc1ccc(Cl)cc1
> 250					C[C@H](C[C@H](N)C(=O)N1CCCCC1)NCc1ccc(Cl)cc1
